pEC50: −log10 of the molar value.
What was measured:
[1] = target: T1, ABCC6 WT (Homo sapiens, UniProt O95255); experiment: ABCC6 WT assay: HiBit protein expression; type: cell-based; settings: HEK-293 cells transiently expressing HiBit-tagged ABCC6 WT; 24 h treatment; top concentration 20 μM; read-out: ABCC6 WT EC50, Emax
T1 construct: expressed in transfected cells; host or cells: HEK-293 (transient, Lipofectamine 2000)
Summary of the method: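 HEK-293 cells transiently transfected with HiBit-tagged human ABCC6 WT cDNA, seeded 24 h post-transfection, treated 24 h at 37° C with ten 2-fold doses (top 20 μM final, 0.15% DMSO). HiBit lytic luminescence reports protein expression; Emax and EC50 derived.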

[2] = target: T2, ABCD2 WT (Homo sapiens, UniProt Q9UBJ2); experiment: D2 correction dose-response assay: ABCD2 WT HiBit protein expression; type: cell-based; settings: HEK-293/ABCD2 WT cells, 24 hours treatment, HiBit luminescence; class combines EC50 and Mean MaxAct (fold); read-out: ABCD2 WT EC50, Emax
T2 construct: expressed in transfected cells
T2 sequence (Q9UBJ2 1-740): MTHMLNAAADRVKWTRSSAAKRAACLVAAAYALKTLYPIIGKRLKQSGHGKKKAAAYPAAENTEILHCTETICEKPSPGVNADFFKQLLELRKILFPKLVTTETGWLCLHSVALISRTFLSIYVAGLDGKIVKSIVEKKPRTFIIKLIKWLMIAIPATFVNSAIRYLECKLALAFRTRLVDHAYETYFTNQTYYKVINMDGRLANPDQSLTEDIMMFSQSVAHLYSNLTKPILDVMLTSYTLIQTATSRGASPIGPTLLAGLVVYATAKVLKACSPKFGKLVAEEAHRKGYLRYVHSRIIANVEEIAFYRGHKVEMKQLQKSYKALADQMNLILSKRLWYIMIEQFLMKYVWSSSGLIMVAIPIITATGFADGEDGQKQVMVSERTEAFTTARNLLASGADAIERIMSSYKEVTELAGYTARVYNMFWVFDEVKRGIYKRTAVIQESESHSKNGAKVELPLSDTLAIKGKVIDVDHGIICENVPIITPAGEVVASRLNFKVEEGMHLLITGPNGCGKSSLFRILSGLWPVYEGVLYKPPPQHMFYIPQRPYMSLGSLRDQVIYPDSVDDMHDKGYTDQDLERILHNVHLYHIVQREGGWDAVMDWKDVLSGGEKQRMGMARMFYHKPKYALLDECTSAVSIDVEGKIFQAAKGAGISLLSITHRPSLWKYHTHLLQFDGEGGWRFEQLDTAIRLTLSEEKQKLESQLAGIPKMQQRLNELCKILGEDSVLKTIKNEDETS
Summary of the method: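 HEK-293 cells stably expressing HiBit-tagged human ABCD2 WT were treated with 11 doses (3-fold dilutions, top final 30 μM, 0.3% DMSO) for 24 h at 37 °C. Expression was measured by HiBit lytic luminescence after 1 h at 25 °C, giving EC50 and Emax.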

T1 sequence (O95255 whole entry): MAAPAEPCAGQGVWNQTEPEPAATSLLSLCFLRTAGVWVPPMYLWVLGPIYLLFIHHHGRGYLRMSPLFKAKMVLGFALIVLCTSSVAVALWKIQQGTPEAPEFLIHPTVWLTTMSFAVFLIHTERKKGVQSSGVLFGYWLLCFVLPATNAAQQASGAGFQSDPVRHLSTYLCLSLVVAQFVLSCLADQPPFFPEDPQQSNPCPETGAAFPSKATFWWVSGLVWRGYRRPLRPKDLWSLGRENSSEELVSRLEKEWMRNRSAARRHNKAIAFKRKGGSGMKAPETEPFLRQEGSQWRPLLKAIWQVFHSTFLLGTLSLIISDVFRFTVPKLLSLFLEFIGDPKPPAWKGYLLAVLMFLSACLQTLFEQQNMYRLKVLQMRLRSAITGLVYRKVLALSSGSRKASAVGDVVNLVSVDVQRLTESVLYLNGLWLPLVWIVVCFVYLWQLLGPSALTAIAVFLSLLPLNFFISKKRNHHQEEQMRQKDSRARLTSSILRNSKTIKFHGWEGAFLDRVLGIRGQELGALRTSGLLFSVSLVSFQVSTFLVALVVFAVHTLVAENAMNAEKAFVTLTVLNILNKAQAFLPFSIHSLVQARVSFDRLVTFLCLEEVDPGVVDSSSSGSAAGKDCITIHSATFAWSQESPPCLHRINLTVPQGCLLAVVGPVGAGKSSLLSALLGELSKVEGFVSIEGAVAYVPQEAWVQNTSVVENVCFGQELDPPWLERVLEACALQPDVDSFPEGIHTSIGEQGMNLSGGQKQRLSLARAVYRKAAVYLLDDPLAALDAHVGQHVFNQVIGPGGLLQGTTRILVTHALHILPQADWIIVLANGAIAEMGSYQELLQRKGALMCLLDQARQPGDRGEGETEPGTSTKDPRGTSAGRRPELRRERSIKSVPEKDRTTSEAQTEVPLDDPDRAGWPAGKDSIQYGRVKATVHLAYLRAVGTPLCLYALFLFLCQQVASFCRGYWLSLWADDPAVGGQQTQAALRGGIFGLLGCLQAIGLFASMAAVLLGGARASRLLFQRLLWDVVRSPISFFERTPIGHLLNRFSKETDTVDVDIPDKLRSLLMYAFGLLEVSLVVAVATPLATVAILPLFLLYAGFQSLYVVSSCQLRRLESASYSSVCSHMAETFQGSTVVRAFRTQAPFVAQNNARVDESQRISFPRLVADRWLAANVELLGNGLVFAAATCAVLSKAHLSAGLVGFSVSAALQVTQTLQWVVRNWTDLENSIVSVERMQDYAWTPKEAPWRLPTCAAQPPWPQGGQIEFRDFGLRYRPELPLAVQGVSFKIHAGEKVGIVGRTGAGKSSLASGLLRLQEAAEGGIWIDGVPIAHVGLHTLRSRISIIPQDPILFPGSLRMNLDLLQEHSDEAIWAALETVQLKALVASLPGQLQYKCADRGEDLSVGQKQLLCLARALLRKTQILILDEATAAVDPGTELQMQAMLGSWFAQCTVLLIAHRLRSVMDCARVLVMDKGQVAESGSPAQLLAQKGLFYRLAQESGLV

pEC50 [1]	pEC50 [2]	Structure (SMILES)
5.00 to 6.00	5.00 to 6.00	Cc1cc(C)c(Oc2cc(-c3cncc(Cl)c3)cnc2NS(=O)(=O)c2cnn(C)c2)c(C)c1 [Compound I-61]
> 6.00	5.00 to 6.00	Cc1cc(C)c(Oc2nc(-c3cncc(Cl)c3)ccc2NS(=O)(=O)c2cccnc2)c(C2CC2)c1 [Compound I-54]
5.00 to 6.00	5.00 to 6.00	Cc1cc(C)c(Oc2nc(-c3cncc(Cl)c3)ccc2N(C2CC2)S(C)(=O)=O)c(C)c1 [Compound I-42]
≤ 4.60	4.60 to 5.00	CNS(=O)(=O)c1cnc(-c2cncc(Cl)c2)cc1Oc1c(C)cc(C)cc1C [Compound I-84]
